Source: patent US11352358B2, “FXR agonist” (XUANZHU BIOPHARMACEUTICAL CO., LTD., priority 2017, dated 2022)

Assay: Liver microsome metabolism stability, rat liver microsome
Type: in vitro ADME, SD rat
Conditions: 0.5 mg protein/mL, test sample 1 μM, β-NADPH
Description: Test samples: the homemade compounds 1, 2, 4 and 5 of the present invention (for their chemical names and preparation methods, see the preparation example for each compound).
a mixed liver microsomes of SD rat and human both purchased from XenoTech, with batch Nos.: 1410271 (SD rat) and 1410013 (human) respectively, wherein the microsomal protein concentrations both were 20 mg mL^−1;
experimental promoter β-NADPH purchased from Roche (batch No.: 524F0231); and a phosphate buffer solution (pH 7.4) made in the lab.
An appropriate amount of the test sample powder was weighed accurately, and dissolved in an appropriate amount of dimethyl sulfoxide (DMSO) to a concentration of 1 mM; and the solution was then diluted by 20 times with methanol to yield a 50 μM working solution.
(1) According to the proportions in table 3 “Composition of the incubation system for liver microsome metabolism stability experiment” above, for each compound, 6 mL of PBS (100 mM), 0.6 mL of MgCl2 solution (20 mM) and 3.66 mL of H2O were made into a mixed solution 1 for the incubation system (not containing the microsomes, the test sample and β-NADPH).
(2) Liver microsomes (20 mg protein/mL) were taken from a refrigerator (−80° C.), and were placed on a thermostatic water bath oscillator (37° C.) and pre-incubated for 3 mins.
(3) For each compound, 1.88 mL of the mixed solution 1 for the incubation system was added with 55 μL of microsomes to obtain a mixed solution 2 for the incubation system (not containing the test sample and β-NADPH).
(4) Sample group (containing the microsomes and D-NADPH): 616 μL of mixed solution 2 for the incubation system was added with 14 μL of the test sample working solution (with a concentration of 50 μM), and with 70 μL of R-NADPH working solution (10 mM). The resulted solution was well mixed, and the resulted solution was then duplicated. The time points of sampling were at 0 min, 5th min, 10th min, 20th min, 30th min and 60th min.
(5) Control group (containing the microsomes, and water instead of D-NADPH): 264 μL of mixed solution 2 for the incubation system was added with 6 μL of the test sample working solution (50 μM), and with 30 μL of water. The resulted solution was well mixed, and the resulted solution was then duplicated. The time points of sampling were at 0 min and 60th min.
(6) 50 μL of sample was taken from an incubating sample tube at each predetermined time point, added to a terminating sample tube (containing 300 μL of cold terminator), and vortexed; and the reaction was terminated.
(7) after 10 mins of vortexing, the solution was centrifuged for 5 mins (12,000 rpm).
(8) 100 μL of supernatant was taken and added with 100 μL of water, and the mixture solution was thoroughly vortexed; and the solution was then analyzed by LC-MS/MS.
Percentages of residual contents were calculated according to the following formula.

**Q.** For O=C(O)c1ccc2nc(N3C[C@@H]4C[C@H]3C[C@H]4OCc3c(-c4c(Cl)cccc4Cl)noc3C3CC3)sc2c1 [Compound 2-1, 2-((1S, 4S, 5R)-5-((5-cyclopropyl-3-(2,6-dichlorophenyl)isoxazol-4-yl)methoxy)-2-azabicyclo[2.2.1]heptan-2-yl)benzo[d]thiazole-6-carboxylic acid], which “Residual content (%) after 60 minutes of incubation” value is on record?
**A.** 77%
